Measurements from ChEMBL document CHEMBL1152326, “Anti-inflammatory sesquiterpenoids from a sponge-derived Fungus Acremonium sp” (J Nat Prod, 2009).
Active and inactive are the calls of the source. The calls are words filed in the database; no cut-off is given here.

System: RAW264.7
Experiment: Antiinflammatory activity in mouse RAW264.7 cells assessed as inhibition of LPS-induced nitric oxide production at 100 uM after 24 hrs by Griess reagent method relative to control
Assay type: functional, cell-based

Structure (SMILES) | Activity
C/C(=C\Cc1c(O)c(Cl)c(C)c(C=O)c1O)CC[C@@]1(C)[C@H](C)CCC(=O)[C@@H]1C | Active
C/C(=C\Cc1c(O)c(Cl)c(C)c(C=O)c1O)CC/C=C(\C)[C@@H]1CC(=O)C(C)(C)O1 | Active
C/C(=C\Cc1c(O)cc(C)c(C=O)c1O)CC[C@@]1(C)[C@H](C)CCC(=O)[C@@H]1C | Active
CC(/C=C/[C@@]1(C)[C@H](C)CCC(=O)[C@@H]1C)=C\Cc1c(O)c(Cl)c(C)c(C=O)c1O | Active

System: RAW264.7
Experiment: Antiinflammatory activity in mouse RAW264.7 cells assessed as inhibition of LPS-induced TNFalpha production at 100 uM after 24 hrs by ELISA relative to control
Assay type: functional, cell-based

Structure (SMILES) | Activity
C/C(=C\Cc1c(O)c(Cl)c(C)c(C=O)c1O)CC/C=C(\C)[C@@H]1CC(=O)C(C)(C)O1 | Active
CC(/C=C/[C@@]1(C)[C@H](C)CCC(=O)[C@@H]1C)=C\Cc1c(O)c(Cl)c(C)c(C=O)c1O | Active
